Results from ChEMBL document CHEMBL1138048, “Synthesis and anticancer activity of brefeldin A ester derivatives” (J Med Chem, 2006).

What was measured:
PC-3 = test: Antiproliferative activity against human PC3 cell line; format: functional
HCT-116 = test: Antiproliferative activity against HCT116 cell line; format: functional; conditions: Homo sapiens
OVCAR-3 = test: Antiproliferative activity against human OVCAR-3 cell line; format: functional
A549 = test: Antiproliferative activity against human A549 cell line; format: functional
SF-539 = test: Antiproliferative activity against human SF539 cell line; format: functional
SN12C = test: Antiproliferative activity against human SN12C cell line; format: functional
[1] = Half life in rat plasma; format: ADME, cell-free
[2] = tested on: Panel NCI-60 (60 carcinoma cell lines); test: Antiproliferative activity against NCI60 cell line; format: functional; conditions: Homo sapiens
MCF7 = test: Antiproliferative activity against human MCF7 cell line; format: functional
UACC-62 = test: Antiproliferative activity against human UACC62 cell line; format: functional

SMILES | GI50 (PC-3) [µM] | GI50 (HCT-116) [µM] | GI50 (OVCAR-3) [µM] | GI50 (A549) [µM] | GI50 (SF-539) [µM] | GI50 (SN12C) [µM] | half-life [1] [min] | GI50 [2] [µM] | GI50 (MCF7) [µM] | GI50 (UACC-62) [µM]
C[C@H]1CCC/C=C/[C@@H]2C[C@H](OC(=O)CCCC(=O)O)C[C@H]2[C@H](O)/C=C/C(=O)O1 | 19.5 | 21.4 | 20.4 | 33.2 | 22.4 | 32.4 | > 1440 | 13 | 19.1 | 
COC(=O)CCCC(=O)O[C@@H]1C[C@H]2[C@H](O)/C=C/C(=O)O[C@@H](C)CCC/C=C/[C@@H]2C1 | 0.06 | 0.04 | 0.03 | 0.05 | 0.07 | 0.2 | 3 | 0.11 | 0.04 | 0.13
C[C@H]1CCC/C=C/[C@@H]2C[C@H](OC(=O)CCCC(=O)NCCCCCCO)C[C@H]2[C@H](O)/C=C/C(=O)O1 | 0.33 | 0.65 |  | 0.7 |  |  |  | 0.47 | 0.18 | 
C[C@H]1CCC/C=C/[C@@H]2C[C@H](O)C[C@H]2[C@H](OC(=O)CCCC(=O)O)/C=C/C(=O)O1 | 43.6 | 25.7 | 36.3 | 33.1 | 31.6 | 30.2 |  | 29.5 | 39.8 | 31.6
CC(=O)O[C@@H]1C[C@H]2[C@H](O)/C=C/C(=O)O[C@@H](C)CCC/C=C/[C@@H]2C1 | 0.04 | 1.15 | 0.01 | 0.01 | 5.25 | 0.01 | 30 | 0.04 | 0.02 | 0.01
COC(=O)CCCC(=O)O[C@@H]1C[C@@H]2[C@H](/C=C/CCC[C@H](C)OC(=O)/C=C/[C@H]2OC(=O)CCCC(=O)OC)C1 | 5.01 | 3.47 | 0.6 | 12.9 | 5.01 | 3.02 |  | 5.1 | 2.57 | 4.47
COC(=O)CCCC(=O)O[C@@H]1/C=C/C(=O)O[C@@H](C)CCC/C=C/[C@@H]2C[C@H](O)C[C@H]21 | 0.04 | 3.47 | 2.4 | 4.17 | 3.39 | 0.01 |  | 0.16 | 0.31 | 0.01
CC(=O)O[C@@H]1C[C@@H]2[C@H](/C=C/CCC[C@H](C)OC(=O)/C=C/[C@H]2OC(C)=O)C1 | 2.14 | 22.9 | 1.48 | 0.85 | 58.9 | 0.01 |  | 0.45 | 2.63 | 0.01
C[C@H]1CCC/C=C/[C@@H]2C[C@H](OC(=O)CCCC(=O)O)C[C@H]2[C@H](OC(=O)CCCC(=O)O)/C=C/C(=O)O1 | > 100 | > 100 | > 100 | > 100 | > 100 | > 100 |  | 97.7 | > 100 | > 100
C[C@H]1CCC/C=C/[C@@H]2C[C@H](O)C[C@H]2[C@H](O)/C=C/C(=O)O1 [BREFELDIN A] | 0.05 | 0.03 | 0.03 | 0.04 |  |  | > 1440 | 0.04 | 0.02 | 0.02
